Patent US20180327367A1, “MACROCYCLIC BROAD SPECTRUM ANTIBIOTICS” (priority 2015, published 2018)
In brackets after ≈: the same amount, converted by molar mass. Like-named read-outs stand apart in the source and are kept apart here.

Key:
[1] = system: Methicillin Resistant Staphylococcus aureus strain USA 300, NRS384; assay: Minimum inhibitory concentration, broth micro-dilution (CLSI), S. aureus; type: cell-based; details: Staphylococcus aureus, MRSA / NRS 384 / USA300, 22 h, 35° C., 22 hours
Method in brief: (§1)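 Ten-point 2-fold series began at 4 μg/mL in protocol 2 and 0.5 μg/mL in protocol 3, in cation-adjusted MHB plus 0.002% Tween-80. Bacteria added to OD600 0.0005 final and incubated at 35° C for 22 hours per CLSI microdilution.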

[2] = system: Escherichia coli MC4100 harboring the IMP4213 (E. coli IMP); assay: microbe, parasite or virus in culture; type: cell-based; details: Escherichia coli, 22 h, read-out: MIC (μg/mL) E. coli IMP, E. coli MC4100 IMP4213, increased outer-membrane permeability; 35° C., 22 hours
Method in brief: as §1

[3] = system: Escherichia coli ATCC 25922; assay: Minimum inhibitory concentration, broth micro-dilution (CLSI), E. coli; type: cell-based; details: Escherichia coli, ATCC25922, 22 h, 35° C., 22 hours
[4] = molecular target: T1, SpsB (Staphylococcus aureus signal peptidase) (Staphylococcus aureus, UniProt P0A070); assay: cell-based; type: biochemical; details: SpsB IC50, whole-cell S. aureus (USA300 background, overexpressing SpsB) as SpsB source; fluorogenic peptide substrate, kinetic read 30 min
T1 construct: This assay uses a suspension of Staphylococcus aureus cells as a source of SpsB instead of recombinant SpsB protein; endogenous in cells; host or cells: S. aureus, USA300 background, overexpressing SpsB (whole-cell suspension from frozen pellets)
T1 sequence (P0A070 whole entry): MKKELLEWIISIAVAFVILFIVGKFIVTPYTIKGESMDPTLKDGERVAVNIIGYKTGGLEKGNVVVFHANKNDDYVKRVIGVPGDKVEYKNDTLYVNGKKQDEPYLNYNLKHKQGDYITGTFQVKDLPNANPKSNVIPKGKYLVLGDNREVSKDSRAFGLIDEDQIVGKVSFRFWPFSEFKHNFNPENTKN
Method in brief: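 Cleavage of an internally quenched (Dabcyl)βAla-KPAKAAE(Edans) peptide, added as 20 μM solution mixed 1:1 with cells, was followed for 30 min at 340/490 nm. SpsB came from a suspension of SpsB-overexpressing USA300 S. aureus in Tween-80-containing PBS buffer. Slopes plotted against 3-fold compound dilutions gave IC50.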

[5] = read-out: MIC (μg/mL) S. aureus, MRSA USA 300 NRS384
[6] = read-out: MIC (μg/mL) E. coli, E. coli ATCC 25922
[7] = MRSA USA 300 NRS384, read-out: MIC (μg/mL) S. aureus
[8] = E. coli ATCC 25922, read-out: MIC (μg/mL) E. coli

Compound	MIC [1, 5]	MIC [2]	MIC [3, 6]	IC50 [4]	MIC [1, 7]	MIC [3, 8]
C[C@@H]1NC(=O)[C@@H](N(C)C(=O)[C@H](CCCCN)NC(=O)c2ccc(-c3ccc(Cl)cc3)cc2)c2ccc(OCCN)c(c2)-c2cc(ccc2O)C[C@@H](C(=O)N[C@@H](C)C#N)NC1=O [Compound 319]	2 µg/mL (≈ 2.35 µM)	0.75 µg/mL (≈ 0.881 µM)	> 64 µg/mL	6.3 nM	–	–
CCCCCCCCNCCCCC(=O)N(C)[C@@H]1C(=O)N[C@@H](C)C(=O)N[C@H](C(=O)NCC#N)Cc2ccc(OCCN)c(c2)-c2cc1ccc2OCCN [Compound 134]	–	> 4 µg/mL	–	3.5 nM	1.5 µg/mL (≈ 2 µM)	> 64 µg/mL
Cc1nc(-c2ccc(CC(C)C)cc2)ncc1C(=O)N[C@@H](CCN)C(=O)N(C)[C@@H]1C(=O)N[C@@H](C)C(=O)N[C@H](C(=O)NCC#N)Cc2ccc(OCCN)c(c2)-c2cc1ccc2OCCN [Compound 157]	–	0.0034 µg/mL (≈ 0.00382 µM)	–	0.79 nM	0.023 µg/mL (≈ 0.0258 µM)	0.098 µg/mL (≈ 0.11 µM)
CCCCc1ccc(-c2ccc(C(=O)N[C@@H](CCCCN)C(=O)N(C)[C@@H]3C(=O)N[C@@H](C)C(=O)N[C@H](C(=O)N[C@H](C)C#N)Cc4ccc(OCCN)c(c4)-c4cc3ccc4OCCN)cc2)cc1 [Compound 136]	–	0.38 µg/mL (≈ 0.415 µM)	–	10 nM	2 µg/mL (≈ 2.18 µM)	8 µg/mL (≈ 8.73 µM)
C[C@@H]1NC(=O)[C@@H](N(C)C(=O)[C@H](CCCCN)NC(=O)c2ccc(-c3ccc(C(F)(F)F)cc3)cc2)c2ccc(OCCN)c(c2)-c2cc(ccc2OCCN)C[C@@H](C(=O)NCC#N)NC1=O [Compound 112]	0.13 µg/mL (≈ 0.142 µM)	0.13 µg/mL (≈ 0.142 µM)	8 µg/mL (≈ 8.75 µM)	0.77 nM	–	–
CCCCc1ccc(C(=O)NCC(=O)NCC(=O)N[C@@H](CCN)C(=O)N(C)[C@@H]2C(=O)N[C@@H](C)C(=O)N[C@H](C(=O)NCC#N)Cc3ccc(OCCN)c(c3)-c3cc2ccc3OCCN)c(C)c1 [Compound 371]	0.25 µg/mL (≈ 0.27 µM)	0.5 µg/mL (≈ 0.54 µM)	32 µg/mL (≈ 34.6 µM)	1.3 nM	–	–
CCCCCCCCc1ccc(C)c(C(=O)N[C@@H](CCCCN)C(=O)N(C)[C@@H]2C(=O)N[C@@H](C)C(=O)N[C@H](C(=O)NCC#N)Cc3ccc(OCCN)c(c3)-c3cc2ccc3OCCN)c1 [Compound 422]	–	0.031 µg/mL (≈ 0.0346 µM)	–	1.1 nM	0.063 µg/mL (≈ 0.0703 µM)	1.5 µg/mL (≈ 1.67 µM)
CCCCCCCOc1ccc(C(=O)N[C@@H](CCN)C(=O)N(C)[C@@H]2C(=O)N[C@@H](C)C(=O)N[C@H](C(=O)NCC#N)Cc3ccc(OCCN)c(c3)-c3cc2ccc3OCCN)c(C(F)F)c1 [Compound 442]	–	0.0078 µg/mL (≈ 0.00861 µM)	–	2.9 nM	0.063 µg/mL (≈ 0.0695 µM)	0.19 µg/mL (≈ 0.21 µM)
CCCCCCCCCCCCCC(=O)N(C)[C@@H]1C(=O)N[C@@H](C)C(=O)N[C@H](C(=O)NCC#N)Cc2ccc(OCCN(C)C)c(c2)-c2cc1ccc2OCCN(C)C [Compound 460]	–	1.5 µg/mL (≈ 1.87 µM)	–	14 nM	2 µg/mL (≈ 2.49 µM)	16 µg/mL (≈ 19.9 µM)
CCCCc1ccc(C(=O)N[C@@H](CCN)C(=O)N(C)[C@@H]2C(=O)N[C@@H](C)C(=O)N[C@H](C(=O)NCC#N)Cc3ccc(OCCN)c(c3)-c3cc2ccc3OCCN)cn1 [Compound 227]	–	0.38 µg/mL (≈ 0.476 µM)	–	5.5 nM	1.5 µg/mL (≈ 1.88 µM)	16 µg/mL (≈ 20 µM)
CCCCCCCc1ccc(C(=O)N[C@@H](CO)C(=O)N[C@@H](CCN)C(=O)N(C)[C@@H]2C(=O)N[C@@H](C)C(=O)N[C@H](C(=O)NCC#N)Cc3ccc(OCCN)c(c3)-c3cc2ccc3OCCN)cc1 [Compound 383]	0.018 µg/mL (≈ 0.0194 µM)	0.023 µg/mL (≈ 0.0248 µM)	4 µg/mL (≈ 4.31 µM)	0.88 nM	–	–
CCCCCCCCCCCCCC(=O)N[C@@H](CCN)C(=O)N(C)[C@@H]1C(=O)N[C@@H](C)C(=O)N[C@H](C(=O)NCC#N)Cc2ccc(OCC)c(c2)-c2cc1ccc2OCCN [Compound 324]	–	0.031 µg/mL (≈ 0.0372 µM)	–	0.82 nM	0.25 µg/mL (≈ 0.3 µM)	1 µg/mL (≈ 1.2 µM)
CCCCc1ccc(C(=O)NCC(=O)N[C@@H](CCN)C(=O)N(C)[C@@H]2C(=O)N[C@@H](C)C(=O)N[C@H](C(=O)NCC#N)Cc3ccc(OCCN)c(c3)-c3cc2ccc3OCCN)c(C)c1 [Compound 370]	0.19 µg/mL (≈ 0.219 µM)	0.13 µg/mL (≈ 0.15 µM)	16 µg/mL (≈ 18.4 µM)	1.1 nM	–	–
CCCCCc1ccc(-c2ncc(C(=O)N[C@@H](CCN)C(=O)N(C)[C@@H]3C(=O)N[C@@H](C)C(=O)N[C@H](C(=O)NCC#N)Cc4ccc(OCCN)c(c4)-c4cc3ccc4OCCN)c(C)n2)cc1 [Compound 162]	–	0.0025 µg/mL (≈ 0.00277 µM)	–	0.72 nM	0.023 µg/mL (≈ 0.0254 µM)	0.063 µg/mL (≈ 0.0697 µM)
CCCCCc1ccc(C(=O)N[C@@H](CCN)C(=O)N(C)[C@@H]2C(=O)N[C@@H](C)C(=O)N[C@H](C(=O)NCC#N)Cc3ccc(OCCN)c(c3)-c3cc2ccc3OCCN)c(C)c1 [Compound 196]	–	0.013 µg/mL (≈ 0.0157 µM)	–	1.1 nM	0.094 µg/mL (≈ 0.114 µM)	0.67 µg/mL (≈ 0.811 µM)
CCC(C)(C)c1ccc(-c2ncc(C(=O)N[C@@H](CCN)C(=O)N(C)[C@@H]3C(=O)N[C@@H](C)C(=O)N[C@H](C(=O)NCC#N)Cc4ccc(OCCN)c(c4)-c4cc3ccc4OCCN)c(C)n2)cc1 [Compound 183]	–	0.0059 µg/mL (≈ 0.00653 µM)	–	0.62 nM	0.063 µg/mL (≈ 0.0697 µM)	0.13 µg/mL (≈ 0.144 µM)
CCCCCCCCc1ccc(C(=O)N[C@@H](CN)C(=O)N(C)[C@@H]2C(=O)N[C@@H](C)C(=O)N[C@H](C(=O)NCC#N)Cc3ccc(OCCN)c(c3)-c3cc2ccc3OCCN)cc1 [Compound 344]	–	0.036 µg/mL (≈ 0.0429 µM)	–	1 nM	0.094 µg/mL (≈ 0.112 µM)	0.38 µg/mL (≈ 0.452 µM)
CCCCCCCCc1ccc(C(=O)N[C@@H](CC(N)=O)C(=O)N(C)[C@@H]2C(=O)N[C@@H](C)C(=O)N[C@H](C(=O)NCC#N)Cc3ccc(OCCN)c(c3)-c3cc2ccc3OCCN)c(C)c1 [Compound 239]	–	0.094 µg/mL (≈ 0.107 µM)	–	0.74 nM	0.047 µg/mL (≈ 0.0533 µM)	3 µg/mL (≈ 3.4 µM)
CCCCCCCOc1cc(Cl)c(C(=O)N[C@@H](CCN)C(=O)N(C)[C@@H]2C(=O)N[C@@H](C)C(=O)N[C@H](C(=O)NCC#N)Cc3ccc(OCCN)c(c3)-c3cc2ccc3OCCN)c(Cl)c1 [Compound 290]	0.063 µg/mL (≈ 0.0681 µM)	0.012 µg/mL (≈ 0.013 µM)	0.38 µg/mL (≈ 0.411 µM)	1.2 nM	–	–
CCCCCCCSc1ccc(C(=O)N[C@@H](CCN)C(=O)N(C)[C@@H]2C(=O)N[C@@H](C)C(=O)N[C@H](C(=O)NCC#N)Cc3ccc(OCCN)c(c3)-c3cc2ccc3OCCN)c(C)c1 [Compound 389]	–	0.031 µg/mL (≈ 0.035 µM)	–	0.81 nM	0.063 µg/mL (≈ 0.0711 µM)	0.25 µg/mL (≈ 0.282 µM)
CCCCCCCCC(O)C(=O)NC(CO)C(=O)N(C)C1C(=O)NC(C)C(=O)NC(C(=O)NCC#N)Cc2ccc(OCCN)c(c2)-c2cc1ccc2OCCN (single isomer, unassigned) [Compound 393-P1]	2 µg/mL (≈ 2.52 µM)	1 µg/mL (≈ 1.26 µM)	> 64 µg/mL	5.9 nM	–	–
CCCCCCc1ccc(C(=O)N2C[C@@H](N)CC2C(=O)N(C)[C@@H]2C(=O)N[C@@H](C)C(=O)N[C@H](C(=O)NCC#N)Cc3ccc(OCCN)c(c3)-c3cc2ccc3OCCN)c(C)c1 (stereo partly shown) [Compound 480]	–	0.012 µg/mL (≈ 0.0141 µM)	–	0.92 nM	0.19 µg/mL (≈ 0.223 µM)	0.5 µg/mL (≈ 0.587 µM)
CCCCOc1ccc(C(=O)N[C@@H](CCN)C(=O)N(C)[C@@H]2C(=O)N[C@@H](C)C(=O)N[C@H](C(=O)NCC#N)Cc3ccc(OCCN)c(c3)-c3cc2ccc3OCCN)c(Cl)c1 [Compound 269]	–	0.023 µg/mL (≈ 0.0271 µM)	–	1.2 nM	0.25 µg/mL (≈ 0.295 µM)	1 µg/mL (≈ 1.18 µM)
Cc1cc(OCC2CCCCC2)ccc1C(=O)N[C@@H](CCN)C(=O)N(C)[C@@H]1C(=O)N[C@@H](C)C(=O)N[C@H](C(=O)NCC#N)Cc2ccc(OCCN)c(c2)-c2cc1ccc2OCCN [Compound 275]	–	0.014 µg/mL (≈ 0.0161 µM)	–	0.55 nM	0.063 µg/mL (≈ 0.0726 µM)	0.38 µg/mL (≈ 0.438 µM)
CCCCCCCCc1cccc(C(=O)N[C@@H](CCCCN)C(=O)N(C)[C@@H]2C(=O)N[C@@H](C)C(=O)N[C@H](C(=O)NCC#N)Cc3ccc(OCCN)c(c3)-c3cc2ccc3OCCN)c1 [Compound 421]	–	0.063 µg/mL (≈ 0.0714 µM)	–	1.6 nM	0.063 µg/mL (≈ 0.0714 µM)	2 µg/mL (≈ 2.27 µM)
CCCCCCCC(=O)N[C@@H](CCN)C(=O)N(C)[C@@H]1C(=O)N[C@@H](C)C(=O)N[C@H](C(=O)NCC#N)Cc2ccc(OCCN)c(c2)-c2cc1ccc2OCCN [Compound 107]	–	0.38 µg/mL (≈ 0.497 µM)	–	4 nM	1 µg/mL (≈ 1.31 µM)	32 µg/mL (≈ 41.9 µM)
CCCCCCCCc1ccc(C(=O)N[C@@H](CCCN)C(=O)N(C)[C@@H]2C(=O)N[C@@H](C)C(=O)N[C@H](C(=O)NCC#N)Cc3ccc(OCCN)c(c3)-c3cc2ccc3OCCN)cc1 [Compound 335]	–	0.016 µg/mL (≈ 0.0184 µM)	–	0.56 nM	0.031 µg/mL (≈ 0.0357 µM)	0.25 µg/mL (≈ 0.288 µM)
CCCCCCCCCC(=O)N[C@@H](CCO)C(=O)N[C@@H](CCN)C(=O)N(C)[C@@H]1C(=O)N[C@@H](C)C(=O)N[C@H](C(=O)NCC#N)Cc2ccc(OCCN)c(c2)-c2cc1ccc2OCCN [Compound 378]	0.13 µg/mL (≈ 0.146 µM)	0.25 µg/mL (≈ 0.28 µM)	24 µg/mL (≈ 26.9 µM)	0.87 nM	–	–
